The values that follow come from publication PMC6770006, “Novel Heat Shock Protein 90 Inhibitors Suppress P-Glycoprotein Activity and Overcome Multidrug Resistance in Cancer Cells” (International Journal of Molecular Sciences, 2019).

Some results are limits rather than exact numbers.

Series [1] concerns P-gp expression. Description: Flow cytometric analysis of P-gp expression. As to conditions: 72 h; 5 µM 5, 200 nM 7, 100 nM 9, 10 nM TQ, 50 nM DOX, 50 nM PTX. The class given is cell-based, human. How it is done: P-glycoprotein expression level in NCI-H460, NCI-H460/R, DLD1, and DLD1-TxR and cells was measured by flow cytometry. All cell lines were seeded in adherent 6-well plates and treated with Hsp90 inhibitors for 72 h at the following concentrations: 5 µM compound 5, 200 nM compound 7, 100 nM compound 9 (NCI-H460 and DLD1), and 10 µM compound 5, 500 nM compound 7, 500 nM compound 9 (NCI-H460/R and DLD1-TxR). Cells were also treated with 10 nM TQ, a non-competitive P-gp inhibitor, which served as a positive control. In addition, sensitive cells (NCI-H460 and DLD1) were treated with 50 nM DOX and 50 nM PTX that served as positive controls for the induction of P-gp expression. Then, cells were collected by trypsinization, washed with PBS, and directly immunostained by FITC-conjugated anti-P-gp antibody according to the manufacturer’s protocol. The samples were kept in the dark until the analysis on CyFlow Space Partec flow cytometer (Sysmex Partec GmbH, Görlitz, Germany). The fluorescence of FITC-conjugated anti-P-gp was detected on fluorescence channel 1 (FL1-H) at 530 nm. A minimum of 10,000 events were collected for each sample (the gate excluded cell debris and dead cells) and the obtained results were analyzed with Summit software v4.3 (Dako Colorado Inc., Fort Collins, CO, USA).

The subject of series [2] is NCI-H460/R cells. Description: Combined treatment of compound 5 with DOX, MTT, median effect analysis. The class given is cell-based, human. As to conditions: Homo sapiens, NCI-H460, 72 h, DOX alone, 72 h. On the procedure:
The combined effects of compound 5 with DOX as well as with PTX were studied in NCI-H460/R and DLD1-TxR cells, respectively, by MTT assay. In simultaneous treatments that lasted 72 h in NCI-H460/R cells, three concentrations of compound 5 (2.5, 5, and 10 µM) were combined with increasing concentrations of DOX (250, 500 and 1000 nM), while in DLD1-TxR cells different concentrations of compound 5 (1, 2.5, and 5 µM) were combined with increasing concentrations of PTX (100, 250 and 500 nM). The nature of the interaction between Hsp90 inhibitors and DOX/PTX was analyzed with CalcuSyn software v1.1 (Biosoft, Cambridge, UK) that uses the Combination Index method based on the multiple drug effect equation [54]. Three data points were used for each single drug in each experiment. The non-constant ratio combination was chosen to assess the effect of both drugs in combination. The results are presented in a fraction-affected CI graph. Values of CI < 1 point to a pronounced additive effect or synergism (the smaller value, the greater the degree of synergy). A value of CI = 1 indicates an additive effect, while values of CI > 1 point to an antagonistic effect.

The subject of series [3] is NCI-H460 cells. Description: MTT assay, cell growth inhibition, NCI-H460. The class given is cell-based. The conditions noted are these: Homo sapiens, 72 h, three independent experiments. How it is done:
(§1) A series of 3-aryl-naphtho[2,3-d]isoxazole-4,9-diones were synthesized (Scheme 1, Figure 1) and their growth inhibition activity was tested in vitro on human non-small cell lung carcinoma NCI-H460, colorectal carcinoma DLD1 and their corresponding MDR cells (NCI-H460/R and DLD1-TxR, respectively), as well as normal embryonic lung fibroblasts MRC-5. The differences in cell growth inhibition between cancer and normal cells obtained by the MTT assay after 72 h treatment are presented in Table 1. The effect of compounds is presented as IC50 values that correspond to the 50% of cell growth inhibition.
(§2) Cell viability was assessed by the MTT assay (AppliChem GmbH, Darmstadt, Germany). Cells grown in 25 cm^2 tissue flasks were trypsinized and 1000 cells/well were seeded into flat-bottomed 96-well tissue culture plates and incubated overnight. Subsequently, the cells were treated with increasing concentrations of Hsp90 inhibitors for 72 h: compound 3 (0.1–2.5 µM), compound 4 (0.25–5 µM), compound 5 (0.5–25 µM), compound 6 (50–1000 nM), compound 7 (10–250 nM), compound 8 (0.25–5 µM), compound 9 (10–250 nM), compound 10 (0.5–25 µM), compound 13 (0.5–10 µM), compound 14 (1–25 µM), and compound 15 (10–250 nM). […] After treatment, MTT was added to each well in a final concentration of 0.2 mg/mL for 4 h. Formazan product was dissolved in 200 µl of DMSO, and the absorbance was measured at 540 nm using an automatic LKB 5060-006 Micro Plate Reader (Vienna, Austria). IC50 value was defined as a concentration of the drug that inhibited cell growth by 50% and was calculated by nonlinear regression analysis using GraphPad Prism 6.0 for Windows (La Jolla, CA, USA). Relative selectivity towards cancer cells was calculated as a relation between IC50 value obtained in MRC-5 cells and an average IC50 value from four tested cancer cell lines.

Series [4] concerns NCI-H460/R cells. Description: MTT assay, cell growth inhibition, NCI-H460/R (MDR). The conditions noted are these: for Efficacy in MDR NCI-H460/R cells compared with sensitive NCI-H460: 72 h; for IC50: Homo sapiens, NCI-H460, 72 h, MDR cells. The class given is cell-based, human. On the procedure:
as §1
(§3) Human colorectal carcinoma (DLD1), non-small cell lung carcinoma (NCI-H460), and normal embryonic lung fibroblast (MRC-5) cell lines were purchased from the American Type Culture Collection, Rockville, MD. P-gp overexpressing multidrug resistant DLD1-TxR cells were selected by continuous exposure to stepwise increasing concentrations of paclitaxel from DLD1 cells, while NCI-H460/R cells were selected from NCI-H460 cells after DOX selective pressure. MDR cancer cell lines, DLD1-TxR and NCI-H460/R, and their sensitive counterparts were maintained in RPMI 1640 medium supplemented with 10% FBS, 2 mM L-glutamine, and 10,000 U/mL penicillin, 10 mg/mL streptomycin, 25 mg/mL amphotericin B solutions. MRC-5 cells were cultured in DMEM supplemented with 10% FBS, 4 g/L glucose, 2 mM L-glutamine and 5000 U/mL penicillin, 5 mg/mL streptomycin solution. All cell lines were sub-cultured at 72 h intervals using 0.25% trypsin/EDTA and seeded into a fresh medium at 8000 cells/cm^2. All cell lines were maintained at 37 °C in a humidified 5% CO2 atmosphere.
as §2
(Formazan colour is commonly taken as a measure of viable cells.)

The test system of series [5] is DLD1 cells. Description: MTT assay, cell growth inhibition, DLD1. The class given is cell-based. The conditions noted are these: Homo sapiens, DLD-1, 72 h. On the procedure:
as §1, §2

The test system of series [6] is DLD1-TxR cells. Description: MTT assay, cell growth inhibition, DLD1-TxR (MDR). The class given is cell-based, human. The conditions noted are these: 72 h; for IC50: Homo sapiens, MDR cells. On the procedure:
as §1, §3, §2

In series [7] the test system is MRC-5 cells. Description: MTT assay, normal embryonic lung fibroblasts MRC-5. The class given is cell-based, human. The conditions noted are these: for IC50: Homo sapiens, MRC5, MTT, 72 h, normal fibroblasts, read-out: Cell growth inhibition IC50, MRC-5; for Relative Selectivity: IC50 in MRC-5 cells / average IC50 of four cancer cell lines. How it is done: as §1, §2

Series [8] deals with NCI-H460, NCI-H460/R, DLD1, DLD1-TxR cells. Description: MTT assay, grouping of inhibitors by IC50 over the cancer cell lines. The conditions noted are these: Homo sapiens, Figure 2b, read-out: IC50 values (grouping for Pearson correlation). The class given is cell-based. How it is done:
When the IC50 values obtained by the MTT assay were compared to Hsp90 affinity binding IC50 values (Table 1), a positive Pearson correlation (r > 0.5) was found for all cancer cell lines (Figure 2b).
as §2

For series [9], the system named is Hsp90. Further details: method as in PMID 22538015. The conditions noted are these: read-out: Hsp90 Affinity binding; cited from earlier work.
Series [10] addresses P-gp (Homo sapiens, UniProt P08183). Description: Rhodamine 123 accumulation assay (P-gp activity, flow cytometry). The class given is cell-based. Set-up: P-gp overexpressing multidrug resistant DLD1-TxR cells were selected by continuous exposure to stepwise increasing concentrations of paclitaxel from DLD1 cells; endogenous in cells; host or cells: NCI-H460/R and DLD1-TxR (drug-selected MDR human cancer cells). The conditions noted are these: DLD1-TxR cells, 30 min, Figure 3a. How it is done:
To study the effect of Hsp90 inhibitors on P-gp activity in MDR cancer cells, intracellular accumulation of the P-gp substrate rhodamine 123 (Rho 123) was analyzed by flow cytometry after 30 min treatment (Figure 3a). A well-known inhibitor of P-gp activity, tariquidar (TQ), was included as a positive control.
The accumulation of Rho 123, a fluorescent P-gp substrate, was measured by flow cytometry. The intensity of the fluorescence is proportional to Rho 123 accumulation in the cell. All cell lines were seeded in adherent 6-well plates and grown overnight. DLD1-TxR and NCI-H460/R cells were treated for 30 min with the following concentrations of Hsp90 inhibitors: 500 nM compound 3, 1 µM compound 4, 10 µM compound 5, 500 nM compound 6, 500 nM compound 7, 1 µM compound 8, 500 nM compound 9, 1 µM compound 10, 1 µM compound 13, 10 µM compound 14, 100 nM compound 15. TQ (10 nM) was used as a positive control for Rho 123 accumulation. Rho 123 (5 μM) was simultaneously added with the investigated compounds and the cells were incubated at 37 °C in 5% CO2 for 30 min. The cells were then trypsinized, pelleted by centrifugation, washed with PBS and placed in ice-cold PBS. The samples were kept on ice in the dark until the analysis on CyFlow Space Partec flow cytometer (Sysmex Partec GmbH, Görlitz, Germany). The fluorescence of Rho 123 was detected on fluorescence channel 1 (FL1-H) at 530 nm. A minimum of 10,000 events were collected for each sample and the obtained results were analyzed using Summit software.
(In general: Flow cytometry measures light scatter and fluorescence of single cells or particles in a stream.)

Sequence of P-gp (P08183 whole entry): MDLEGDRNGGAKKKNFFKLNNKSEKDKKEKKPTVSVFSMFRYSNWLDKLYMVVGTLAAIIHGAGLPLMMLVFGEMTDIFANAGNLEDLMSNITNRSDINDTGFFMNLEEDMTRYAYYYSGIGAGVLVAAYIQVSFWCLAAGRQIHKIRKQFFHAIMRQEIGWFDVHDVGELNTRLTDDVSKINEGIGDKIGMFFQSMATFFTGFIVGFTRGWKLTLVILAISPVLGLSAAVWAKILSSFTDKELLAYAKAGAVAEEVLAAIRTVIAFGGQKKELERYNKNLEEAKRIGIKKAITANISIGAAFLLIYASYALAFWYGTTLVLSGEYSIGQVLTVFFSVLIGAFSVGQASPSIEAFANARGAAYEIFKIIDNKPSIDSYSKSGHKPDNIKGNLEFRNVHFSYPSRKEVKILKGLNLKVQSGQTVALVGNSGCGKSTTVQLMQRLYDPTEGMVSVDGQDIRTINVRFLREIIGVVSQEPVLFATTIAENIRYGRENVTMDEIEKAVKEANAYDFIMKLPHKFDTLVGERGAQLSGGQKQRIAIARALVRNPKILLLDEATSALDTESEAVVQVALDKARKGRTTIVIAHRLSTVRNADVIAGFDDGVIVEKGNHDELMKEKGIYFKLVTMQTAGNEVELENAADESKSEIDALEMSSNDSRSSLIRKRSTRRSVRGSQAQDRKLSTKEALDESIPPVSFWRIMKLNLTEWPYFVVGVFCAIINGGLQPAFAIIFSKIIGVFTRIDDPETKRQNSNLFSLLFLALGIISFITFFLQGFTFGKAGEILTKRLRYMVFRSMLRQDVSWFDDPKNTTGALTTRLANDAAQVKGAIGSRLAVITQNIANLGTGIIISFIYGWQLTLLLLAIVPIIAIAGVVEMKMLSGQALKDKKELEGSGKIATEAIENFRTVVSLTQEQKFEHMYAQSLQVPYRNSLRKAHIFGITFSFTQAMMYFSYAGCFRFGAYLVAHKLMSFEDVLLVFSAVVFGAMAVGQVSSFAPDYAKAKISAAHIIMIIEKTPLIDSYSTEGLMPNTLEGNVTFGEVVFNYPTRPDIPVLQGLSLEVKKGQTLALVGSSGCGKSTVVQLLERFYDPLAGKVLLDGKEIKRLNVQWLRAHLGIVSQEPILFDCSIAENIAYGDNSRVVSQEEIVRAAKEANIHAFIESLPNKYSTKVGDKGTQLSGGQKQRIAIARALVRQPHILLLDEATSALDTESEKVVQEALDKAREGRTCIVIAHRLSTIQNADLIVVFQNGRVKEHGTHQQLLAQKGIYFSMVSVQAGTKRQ

On to `COc1cccc2c1C(=O)c1c(O)c3c(c(O)c1C2=O)C[C@@](O)(C(=O)CO)C[C@@H]3O[C@H]1C[C@H](N)[C@H](O)[C@H](C)O1` [DOX, doxorubicin], for which, in [1], the “Change in P-gp expression, DLD1” value was “significantly increased P-gp expression” and the “Change in P-gp expression, NCI-H460” value was “significantly increased P-gp expression”. In series [2], the IC50 stood at 2270 ± 42.4 nM.
For `CC(=O)Oc1cccc2c1C(=O)c1c(-c3ccncc3)noc1C2=O` [Compound 15], the IC50 in [3] is 52 ± 2 nM; in series [4], 39 ± 1 nM; in series [5], 44 ± 1 nM; in [6], 193 ± 7 nM; in series [7] it was 250 ± 14 nM; in series [8], < 1000 nM. The IC50 in [9] was 84 nM. Also, the “Efficacy in MDR NCI-H460/R cells compared with sensitive NCI-H460” value in series [4] is given as “maintained”. Further, the “Efficacy in MDR DLD1-TxR cells compared with sensitive DLD1” value in series [6] is listed as “lower”. In addition, the “Relative Selectivity” value in series [7] was 3.05. Moreover, the “P-gp activity / Rho 123 accumulation in DLD1-TxR” value in series [10] was “maintained a certain activity”.
In the case of `COc1cccc2c1C(=O)c1c(-c3cc[n+](Cc4ccccc4)cc3)noc1C2=O` [Compound 14], the IC50 in series [3] is 978 ± 18 nM; in series [4], 23600 ± 470 nM; in series [5], 7450 ± 212 nM; in series [6] it was 10600 ± 270 nM; in series [7] it was 53300 ± 1730 nM; in series [8], ≥ 1000 nM. Also, the IC50 in series [9] was 340 nM. Also, the “Efficacy in MDR NCI-H460/R cells compared with sensitive NCI-H460” value in [4] is “further compromised in the presence of MDR phenotype in both cell lines”. In series [6], the “Efficacy in MDR DLD1-TxR cells compared with sensitive DLD1” value is “further compromised in the presence of MDR phenotype in both cell lines”. The “Relative Selectivity” value in series [7] was 5.00. The “P-gp activity / Rho 123 accumulation in DLD1-TxR” value in series [10] is “partially restored”.
